Laboratory results published in patent US20220331348A1, “METHOD OF PREPARING PENTACYCLIC TRITERPENOID SAPONINS AND DRUG COMPOSITION” (CHINA PHARMACEUTICAL UNIVERSITY, priority 2019, published 2022).
Marks after values point to notes of the source that are not given here.

Assays:
[1] = tested on: high fat diet induced NASH model rats; assay: High fat diet (HFD) induced NASH rat model; format: in vivo; details: for Liver TC / Liver TG / Serum LDL-c / Serum TG: HFD induced NASH model rats; for Liver TC / Liver TG / Serum LDL-c / Serum TG / ALT / AST: n = 8; for ALT / AST: serum of HFD induced NASH model rats
Experimental: Animal: 32 SD male rats of SPF level with 6 weeks old and 220 g were purchased from Beijing Vital River Laboratory Animal Technology Co., Ltd. All the animals maintained 12 h alternative circadian rhythm with free access to food.
Reagent: the ginsenoside Ro (I) was purchased from Shanghai Boka Chemistry Technology Co., Ltd; obeticholic acid (OCA) was purchased from Jiangsu Vcare PharmaTech Co., Ltd; high fat diets were purchased from Research Diets (D12492, 60 kcal %); and standard feeds were purchased from Research Diets (D12450B, 10 kcal %).
The rats were randomly divided into 4 groups based on the weight: a control group (CHOW), a high fat diet model group (HFD), a positive drug obeticholic acid (OCA, 5 mg/Kg) group (HFD+OCA) and a ginsenoside Ro (Ro for short, 5 mg/kg) group (HFD+Ro). The control group was fed with the standard feeds and drank water normally; and the rest groups were fed with the high fat diets, drank 10% aqueous sucrose solution for replacing the water and were modeled for 20 weeks.
After 20 weeks, the control group and the high fat diet model group were given with a CMC-Na solution with the volume fraction of 0.5% intragastrically every day, the HFD+OCA group was given with the obeticholic acid (5 mg/Kg) intragastrically every day, and the HFD+Ro was given with the ginsenoside Ro (5 mg/Kg) intragastrically every day. Administration was conducted for 8 weeks, during which, the control group was given with the standard feeds and drank the water normally, and the rest three groups were given with the high fat diets and drank 10% aqueous sucrose solution. The rats in each group were weighed every day, weights, hairs, feces and activity conditions were carefully observed and recorded.
The rats were deprived of food but not water for 12 h in advance; and the next morning, blood was taken from eye sockets, the rats were sacrificed, and livers were harvested. Right liver lobule tissues were fixed with 4% paraformaldehyde for HE stained slicing. A part of liver tissues were divided into 3 parts, which were snap-frozen in liquid nitrogen for subsequent detection of other indexes.
Whole blood was left to still standing for 2 h at room temperature, centrifugation was conducted for 15 min at 3000 rpm, and a serum was collected. 100 Mg of liver tissues were taken and homogenized with 0.9 mL of precooled normal saline, a homogenate was centrifuged for 15 min at 4° C. and 3000 rpm, and a supernatant was taken. Both of the serum and the supernatant were sent to Pathologic Department of Hospital of Integrated Traditional Chinese and Western Medicine in Jiangsu Province for determination of levels of triglyceride (TG), total cholesterol (TC), low density lipoprotein cholesterin (LDL-c) and high density lipoprotein cholesterol (HDL-c) in the serum and levels of the TG and the TC in the supernatant of the homogenate of the liver tissues with the full-automatic biochemical analyzer.
Pretreated tissues were sent to Google Biotechnology Co., Ltd for preparing HE stained slices and oil red stained slices.
Liver tissues preserved at −80° C. were put in the liquid nitrogen, about 10 mg of the liver tissues were quickly dissected out, 500 μL of precooled tissue lysate was added, and the tissues were homogenized with a homogenizer and then left to lyse on ice for 30 min; and centrifugation was conducted for 15min at 4° C. and 12000 rpm, […] of a supernatant was sucked to a clean EP tube, […] of the supernatant was taken for BCA protein quantification, […] of 5*loading buffer was added in the rest protein supernatant for denaturing by boiling, SDS-PAGE electrophoresis was conducted subsequently, the proteins were transferred onto a PVDF membrane, then incubation and elution of a relevant antibody were conducted, and finally, a chemiluminescence apparatus was employed for imaging analysis.

[2] = tested on: AMPK and mTOR signaling pathways in polycystic kidney epithelial cells; assay: Western blot of AMPK and proliferation-related signal molecules in polycystic kidney epithelial cells; format: cell-based, human; details: 10 μM, 48 h, Western blot (FIG. 16)
Description: Cell and reagent: complete media for human ADPKD cyst lining epithelial cell lines WT9-12 and DMEM were purchased from ATCC Company; fetal calf serums were purchased from Gibco Company; Cell Counting Kit-8 was purchased from DOJINDO Company; Click-iT® EdU Imaging Kits were purchased from Invitrogen™ Thermo Fisher Scientific Company; Caspase -3/CPP32 Colorimetric Assay Kit was purchased from BioVision Company; Annexin V/PI double-staining flow type cell apoptosis detection kits were purchased from Bender Company; and anti-Phospho-(AMPKa, mTOR, p70S6K, 4E-BP1) antibodies were purchased from Cell Signaling Technology Company.
Detection on protein expression with Western blot: cells in the control group and the treatment group (intervening the polycystic kidney epithelial cell with 10 μM of asperosaponin VI for 48 h) were collected, cells were lysed with a RIPA lysate for extraction of total proteins, the concentration of proteins was detected with a BCA method, and […] of sample proteins were taken for sample addition in sequence; after SDS-PAGE electrophoresis, the sample proteins were transferred onto PVDF membranes at a constant current (I=250 mA), were blocked for 1 h with 5% BSA and were incubated for 24 h with different primary antibodies; after the membranes were washed four times with TBST, incubation was conducted for 1.5 h at a normal temperature by using HRP-labeled second antibodies (1:10000); and after the membranes were washed four times with TBST, the proteins were developed with an ECL, and protein bands of various groups were subjected to gray scale analysis with an Image-J gel image analysis software.

[3] = HFD NASH rats, 5 mg/Kg intragastrically every day, 8 weeks (FIG. 4)
[4] = HFD NASH rats, 5 mg/Kg, 8 weeks, q-PCR (FIG. 6)
[5] = HFD NASH rats, 5 mg/Kg, 8 weeks, q-PCR (FIG. 7)
[6] = HFD NASH rats, summary in words

SMILES	inflammatory responses of the livers [1, 6]	lipid accumulation, caused by the high fat diets, of the rat livers [1, 6]	Liver TC ([1]; 5 mg/Kg)	Liver TG ([1]; 5 mg/Kg)	Serum LDL-c ([1]; 5 mg/Kg)	Serum TG ([1]; 5 mg/Kg)	ALT ([1]; 5 mg/Kg)	AST ([1]; 5 mg/Kg)	further results
CC1(C)CC[C@]2(C(=O)O[C@@H]3O[C@H](CO)[C@@H](O)[C@H](O)[C@H]3O)CC[C@]3(C)C(=CC[C@@H]4[C@@]5(C)CC[C@H](O[C@@H]6O[C@H](C(=O)O)[C@@H](O)[C@H](O)[C@H]6O[C@@H]6O[C@H](CO)[C@@H](O)[C@H](O)[C@H]6O)C(C)(C)[C@@H]5CC[C@]43C)[C@@H]2C1 [(I), ginsenoside Ro]	inhibits	significantly lower							level of the HDL-c in the serum [1, 3]: effectively lower; level of the LDL-c in the serum [1, 3]: effectively lower; level of the TC in the serum [1, 3]: effectively lower; contents of the TC in the livers ([1]; HFD NASH rats, 5 mg/Kg intragastrically every day, 8 weeks (FIG. 5)): significantly lowered; level of the TG in the serum ([1]; HFD NASH rats, 5 mg/Kg intragastrically every day, 8 weeks, vs HFD model group (FIG. 4)): significantly lower; level of the TG in the liver ([1]; HFD NASH rats, 5 mg/Kg intragastrically every day, 8 weeks, vs HFD model group (FIG. 5)): significantly lower; mRNA expression level of IL-6 in liver [1, 4]: significantly inhibit increase; mRNA expression level of IL-10 in liver [1, 4]: significantly inhibit increase; mRNA expression level of TNF-α in liver [1, 4]: significantly inhibit increase; mRNA expression level of TGF-β in liver [1, 5]: significantly inhibit increase; mRNA expression level of α-SMA in liver [1, 5]: significantly inhibit increase; liver fibrosis [1, 6]: inhibits
CC1(C)CC[C@]2(C(=O)O[C@@H]3O[C@H](CO[C@@H]4O[C@H](CO)[C@@H](O)[C@H](O)[C@H]4O)[C@@H](O)[C@H](O)[C@H]3O)CC[C@]3(C)C(=CC[C@@H]4[C@@]5(C)CC[C@H](O[C@@H]6OC[C@H](O)[C@H](O)[C@H]6O)[C@@](C)(CO)[C@@H]5CC[C@]43C)[C@@H]2C1 [(II), asperosaponin VI]									phosphorylation level of 4E-BP1 [2]: lowered; phosphorylation level of AMPKa [2]: increased; phosphorylation level of mTOR [2]: lowered; phosphorylation level of p70S6K [2]: lowered
C[C@H]1O[C@@H](O[C@H]2CC[C@@]3(C)[C@@H](CC[C@]4(C)[C@@H]3C=C[C@]35OC[C@@]6(CCC(C)(C)C[C@H]63)[C@@H](O)C[C@]54C)[C@]2(C)CO)[C@H](O)[C@@H](O[C@@H]2O[C@H](CO)[C@@H](O)[C@H](O)[C@H]2O)[C@H]1O [(VII), saikosaponin A]	inhibit	effectively lower	0.518 ± 0.133** mmoL/gprot	1.268 ± 0.294** mmoL/gprot	47.06 ± 7.83* mg/dL	20.43 ± 4.04* mg/dL	71.36 ± 9.26* U/L	115.24 ± 19.23*** U/L	
C[C@H]1O[C@@H](O[C@H]2CC[C@@]3(C)[C@@H](CC[C@]4(C)[C@@H]3C=C[C@]35OC[C@@]6(CCC(C)(C)C[C@H]63)[C@H](O)C[C@]54C)[C@]2(C)CO)[C@H](O)[C@@H](O[C@@H]2O[C@H](CO)[C@@H](O)[C@H](O)[C@H]2O)[C@H]1O [(VIII), saikosaponin D]	inhibit	effectively lower	0.509 ± 0.248** mmoL/gprot	1.173 ± 0.606*** mmoL/gprot	46.75 ± 7.35** mg/dL	19.66 ± 5.12* mg/dL	67.74 ± 8.29** U/L	121.43 ± 9.28** U/L	
C[C@@H]1CC[C@]2(C(=O)O[C@@H]3O[C@H](CO)[C@@H](O)[C@H](O)[C@H]3O)CC[C@]3(C)C(=CC[C@@H]4[C@@]5(C)CC[C@H](O[C@@H]6OC[C@H](O)[C@H](O)[C@H]6O)C(C)(C)[C@@H]5CC[C@]43C)[C@@H]2[C@]1(C)O [(XII), ziyuglycoside I]	inhibit	effectively lower	0.547 ± 0.272* mmoL/gprot	1.302 ± 0.443** mmoL/gprot	48.52 ± 6.98* mg/dL	18.32 ± 2.51** mg/dL	74.03 ± 12.38* U/L	120.91 ± 19.32** U/L	
C[C@@H]1CC[C@]2(C(=O)O)CC[C@]3(C)C(=CC[C@@H]4[C@@]5(C)CC[C@H](O[C@@H]6OC[C@H](O)[C@H](O)[C@H]6O)C(C)(C)[C@@H]5CC[C@]43C)[C@@H]2[C@]1(C)O [(XIII), ziyuglycoside II]	inhibit	effectively lower	0.503 ± 0.256** mmoL/gprot	1.299 ± 0.387** mmoL/gprot	45.36 ± 5.37** mg/dL	19.41 ± 4.37* mg/dL	69.28 ± 12.33** U/L	122.16 ± 17.38** U/L	
